These compounds were tested on murine leukemia L1210. Conditions: l1210 cells.

Row | Compound | IC50, "in vitro" cytotoxic activity against murine leukemia L1210
1 | N.N.N.N.N.N.NCCCCCCN.NCCCCCCN.O=[N+]([O-])[O-].O=[N+]([O-])[O-].O=[N+]([O-])[O-].O=[N+]([O-])[O-].[Cl-].[Cl-].[Pt+2].[Pt+2].[Pt+2] [t,t,t-[PtCl(NH3)2 H2 N(CH2)6 NH2 Pt(NH3)2 H2 N(CH2)6 NH2 PtCl(NH3)2]^+4.4NO3^-] | 0.38 µg/mL
2 | t,t,t,t,t-[PtCl(NH3)2 H2 N--(CH2)6 --NH2 Pt--(NH3)2 H2 N--(CH2)6 --NH2 Pt(NH3)2 H2 N--(CH2)6 --NH2 Pt(NH3)2 H2 N--(CH2)6 --NH2 PtCl(NH3)2 ]^+8.8Cl^- | 0.3 µg/mL
3 | t,t-[PtCl(NH3)2 H2 N--(CH2)6 --NH2 PtCl(NH3)2 ]^+2.2NO3^- | 2.3 µg/mL

From patent US6313333A, “Multinuclear cationic platinum complexes with antitumor activity” (Setanta Therapeutics, Inc., priority 1997, dated 2001)
